Reference: the Kinase Knowledgebase extract (Sharma et al. 2016)

Biological target: PIK3CG (human) (UniProt P48736)
Assay: Assessment of PIK3CG Kinase Activity

Chain of PIK3CG (human) (P48736 whole entry, looked up): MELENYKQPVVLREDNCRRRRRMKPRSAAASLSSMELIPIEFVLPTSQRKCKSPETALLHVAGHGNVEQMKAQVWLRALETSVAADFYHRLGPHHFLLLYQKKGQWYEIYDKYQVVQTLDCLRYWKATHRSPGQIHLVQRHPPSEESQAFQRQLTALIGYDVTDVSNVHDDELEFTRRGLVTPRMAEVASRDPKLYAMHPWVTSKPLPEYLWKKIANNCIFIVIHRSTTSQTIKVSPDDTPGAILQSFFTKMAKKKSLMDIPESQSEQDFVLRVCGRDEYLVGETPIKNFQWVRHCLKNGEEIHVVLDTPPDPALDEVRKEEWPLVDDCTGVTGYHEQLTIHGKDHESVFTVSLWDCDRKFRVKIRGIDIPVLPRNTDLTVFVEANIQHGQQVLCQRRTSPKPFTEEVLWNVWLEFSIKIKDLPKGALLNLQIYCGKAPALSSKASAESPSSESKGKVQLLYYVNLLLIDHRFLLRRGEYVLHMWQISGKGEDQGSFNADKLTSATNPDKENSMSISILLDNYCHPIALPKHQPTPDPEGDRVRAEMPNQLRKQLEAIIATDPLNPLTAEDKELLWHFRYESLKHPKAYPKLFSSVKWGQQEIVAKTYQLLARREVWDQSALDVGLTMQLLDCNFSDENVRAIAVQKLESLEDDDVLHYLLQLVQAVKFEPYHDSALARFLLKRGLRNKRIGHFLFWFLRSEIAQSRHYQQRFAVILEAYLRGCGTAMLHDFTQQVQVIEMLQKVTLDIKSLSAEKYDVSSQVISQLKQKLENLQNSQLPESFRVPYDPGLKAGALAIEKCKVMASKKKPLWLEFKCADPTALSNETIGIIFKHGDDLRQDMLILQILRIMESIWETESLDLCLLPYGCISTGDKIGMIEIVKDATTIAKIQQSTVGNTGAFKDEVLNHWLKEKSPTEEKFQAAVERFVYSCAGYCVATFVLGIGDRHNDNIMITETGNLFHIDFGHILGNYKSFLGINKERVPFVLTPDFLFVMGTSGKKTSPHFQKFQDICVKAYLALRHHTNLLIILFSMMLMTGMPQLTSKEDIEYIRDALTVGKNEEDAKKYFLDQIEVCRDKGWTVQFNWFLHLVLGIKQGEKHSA

| Structure (SMILES) | IC50 [nM] |
| --- | --- |
| CN1CCN(c2ccc(NC(=O)Nc3nc4c(s3)-c3c(c(-c5cncnc5)nn3-c3ccccc3F)CC4)cc2)CC1 | < 800 |
| CCn1cnc(CCNC(=O)Nc2nc3c(s2)-c2c(c(-c4cncnc4)nn2-c2ccccc2Cl)CC3)c1 | < 800 |
| NC(=O)Nc1nc2c(s1)-c1c(c(-c3cccnc3)nn1-c1ccccc1Cl)CC2 | < 800 |
| O=C1CCC(CNC(=O)Nc2nc3c(s2)-c2c(c(-c4cncnc4)nn2-c2ccccc2Cl)CC3)N1 (stereo not given) | < 800 |
| Cn1cc(CCNC(=O)Nc2nc3c(s2)-c2c(c(-c4ccccc4)nn2-c2ccccc2Cl)CC3)cn1 | < 800 |
| C[C@@H](NC(=O)Nc1nc2c(s1)-c1c(c(-c3ccccc3)nn1-c1ccccc1Cl)CC2)C(=O)N1CCN(C)CC1 | < 800 |
| O=C(NCc1ccc2nc[nH]c2c1)Nc1nc2c(s1)-c1c(c(-c3cncnc3)nn1-c1ccccc1Cl)CC2 | < 800 |
| CN(C(=O)OC(C)(C)C)C1CCN(C(=O)Nc2nc3c(s2)-c2c(c(-c4cccnc4)nn2-c2ccccc2Cl)CC3)C1 (stereo not given) | < 800 |
| CN(C)C(=O)Nc1nc2c(s1)-c1c(c(-c3cncnc3)nn1-c1ccccc1F)CC2 | < 800 |
| Nc1nnc(CNC(=O)Nc2nc3c(s2)-c2c(c(-c4cncnc4)nn2-c2ccccc2Cl)CC3)[nH]1 | < 800 |
| CC(C)(C)OC(=O)Nc1cccc(CNC(=O)Nc2nc3c(s2)-c2c(c(-c4cccnc4)nn2-c2ccccc2Cl)CC3)c1 | < 800 |
| CN(C)C(=O)N1CCC[C@@H]1CNC(=O)Nc1nc2c(s1)-c1c(c(-c3cncnc3)nn1-c1ccccc1Cl)CC2 | < 800 |
| O=C(Nc1nc2c(s1)-c1c(c(-c3ccccc3)nn1-c1ccccc1Cl)CC2)NC1CCN(S(=O)(=O)c2ccccc2)CC1 | < 800 |
| CN1CCN(CCCNC(=O)Nc2nc3c(s2)-c2c(c(-c4cncnc4)nn2-c2ccccc2Cl)CC3)CC1 | < 800 |
| CC(C)c1nnc(CCNC(=O)Nc2nc3c(s2)-c2c(c(-c4cccnc4)nn2-c2ccccc2Cl)CC3)o1 | < 800 |
| CCNC(=O)Nc1nc2c(s1)-c1c(c(-c3cccnc3)nn1-c1ccc(S(N)(=O)=O)cc1Cl)CC2 | < 800 |
| CCc1cnc(CCNC(=O)Nc2nc3c(s2)-c2c(c(-c4cccnc4)nn2C2CCN(C4CCCC4)CC2)CC3)o1 | < 800 |
| CC(C)c1cccc(CNC(=O)Nc2nc3c(s2)-c2c(c(C4CC4)nn2-c2ccccc2Cl)CC3)c1 | < 800 |
| NC(=O)Nc1nc2c(s1)-c1c(c(-c3cncnc3)nn1-c1ccccc1Cl)CC2 | < 800 |
| O=C(NC[C@H]1CCCN1C(=O)OCc1ccccc1)Nc1nc2c(s1)-c1c(c(-c3cncnc3)nn1-c1ccccc1Cl)CC2 | < 800 |
| O=C(NCc1ccc(CN2CCNC2=O)cc1)Nc1nc2c(s1)-c1c(c(-c3cccnc3)nn1-c1ccccc1Cl)CC2 | < 800 |
| O=C(NC[C@H]1CCCN1)Nc1nc2c(s1)-c1c(c(-c3cncnc3)nn1-c1ccccc1F)CC2 | < 800 |
| CC(=O)N(C)c1cccc(CNC(=O)Nc2nc3c(s2)-c2c(c(-c4cccnc4)nn2C2CCN(C)CC2)CC3)c1 | < 800 |
| CC(C)(C)OC(=O)CCNC(=O)Nc1nc2c(s1)-c1c(c(-c3cncnc3)nn1-c1ccccc1Cl)CC2 | < 800 |
| O=C(NCCC(=O)N1CCOCC1)Nc1nc2c(s1)-c1c(c(-c3ccccc3)nn1-c1ccccc1Cl)CC2 | < 800 |
| CN(C)CC(=O)N1CC[C@H](CNC(=O)Nc2nc3c(s2)-c2c(c(-c4cncnc4)nn2-c2ccccc2Cl)CC3)C1 | < 800 |
| CCn1cnc(CCNC(=O)Nc2nc3c(s2)-c2c(c(-c4ccccc4)nn2-c2cccc(Cl)c2)CC3)c1 | < 800 |

| Structure (SMILES) | IC50 [nM] |
| --- | --- |
| CC(C)(C)OC(=O)N1CCCC(CNC(=O)Nc2nc3c(s2)-c2c(c(-c4cccnc4)nn2-c2ccccc2Cl)CC3)C1 (stereo not given) | < 800 |
| O=C(NCCCn1ccnc1)Nc1nc2c(s1)-c1c(c(-c3cncnc3)nn1-c1ccccc1Cl)CC2 | < 800 |
| CC(C)(C)OC(=O)NC1CCN(C(=O)Nc2nc3c(s2)-c2c(c(-c4cccnc4)nn2-c2ccccc2Cl)CC3)C1 (stereo not given) | < 800 |
| CN(C)c1cccc(CNC(=O)Nc2nc3c(s2)-c2c(c(-c4cccnc4)nn2-c2ccccc2Cl)CC3)c1 | < 800 |
| CN(C)c1cccc(CNC(=O)Nc2nc3c(s2)-c2c(c(C4CC4)nn2-c2ccccc2Cl)CC3)c1 | < 800 |
| Cn1ccnc1CNC(=O)Nc1nc2c(s1)-c1c(c(-c3cccnc3)nn1-c1ccccc1Cl)CC2 | < 800 |
| CCCn1cnc(CCNC(=O)Nc2nc3c(s2)-c2c(c(-c4ccccc4)nn2-c2cccc(Cl)c2)CC3)c1 | < 800 |
| CCc1csc(CCNC(=O)Nc2nc3c(s2)-c2c(c(-c4cccnc4)nn2-c2ccccc2Cl)CC3)n1 | < 800 |
| CC(C)c1noc(CCNC(=O)Nc2nc3c(s2)-c2c(c(-c4cncnc4)nn2-c2ccccc2Cl)CC3)n1 | < 800 |
| O=C(NCc1cccc(OC(F)(F)F)c1)Nc1nc2c(s1)-c1c(c(-c3cncnc3)nn1-c1ccccc1Cl)CC2 | < 800 |
| O=C(NCCNS(=O)(=O)C(F)(F)F)Nc1nc2c(s1)-c1c(c(-c3ccccc3)nn1-c1ccccc1Cl)CC2 | < 800 |
| CC(C)c1nnc(CCNC(=O)Nc2nc3c(s2)-c2c(c(-c4cncnc4)nn2-c2ccccc2Cl)CC3)o1 | < 800 |
| CCc1cnc(CCNC(=O)Nc2nc3c(s2)-c2c(c(-c4cncnc4)nn2C2CCN(C)CC2)CC3)o1 | < 800 |
| Cn1cc(CCNC(=O)Nc2nc3c(s2)-c2c(c(-c4cncnc4)nn2-c2ccccc2Cl)CC3)cn1 | < 800 |
| NC(=O)c1cccc(CNC(=O)Nc2nc3c(s2)-c2c(c(-c4cccnc4)nn2-c2ccccc2Cl)CC3)c1 | < 800 |
| CN1CCN(C(=O)CCNC(=O)Nc2nc3c(s2)-c2c(c(-c4ccccc4)nn2-c2ccccc2Cl)CC3)CC1 | < 800 |
| CC(C)(C)OC(=O)NCCNC(=O)Nc1nc2c(s1)-c1c(c(-c3ccccc3)nn1-c1ccccc1Cl)CC2 | < 800 |
| O=C(NCCc1cccnc1)Nc1nc2c(s1)-c1c(c(-c3cccnc3)nn1-c1ccccc1Cl)CC2 | < 800 |
| O=C(Nc1nc2c(s1)-c1c(c(-c3cccnc3)nn1-c1ccccc1Cl)CC2)N1CCC(N2Cc3ccccc3NC2=O)C1 (stereo not given) | < 800 |
| CCN1CCC[C@@H]1CNC(=O)Nc1nc2c(s1)-c1c(c(-c3cccnc3)nn1-c1ccccc1Cl)CC2 | < 800 |
| O=C(NCCNS(=O)(=O)c1cccnc1)Nc1nc2c(s1)-c1c(c(-c3ccccc3)nn1-c1ccccc1Cl)CC2 | < 800 |
| CC(C)OC(=O)N1CCC[C@@H]1CNC(=O)Nc1nc2c(s1)-c1c(c(-c3cncnc3)nn1-c1ccccc1Cl)CC2 | < 800 |
| NC(=O)c1cccc(CNC(=O)Nc2nc3c(s2)-c2c(c(C4CC4)nn2-c2ccccc2Cl)CC3)c1 | < 800 |
| NS(=O)(=O)c1ccc(CNC(=O)Nc2nc3c(s2)-c2c(c(-c4cncnc4)nn2-c2ccccc2Cl)CC3)cc1 | < 800 |
| O=C(NCc1ccc(N2CCNC2=O)cc1)Nc1nc2c(s1)-c1c(c(-c3ccccc3)nn1-c1cccc(Cl)c1)CC2 | < 800 |
| O=C(NCCN1CCOCC1)Nc1nc2c(s1)-c1c(c(-c3cccnc3)nn1-c1ccccc1Cl)CC2 | < 800 |
| CN1CCN(CCCNC(=O)Nc2nc3c(s2)-c2c(c(-c4cncnc4)nn2-c2ccccc2F)CC3)CC1 | < 800 |

| Structure (SMILES) | IC50 [nM] |
| --- | --- |
| CC(C)(C)OC(=O)N1CCC[C@H]1CNC(=O)Nc1nc2c(s1)-c1c(c(-c3cccnc3)nn1-c1ccccc1Cl)CC2 | < 800 |
| C[C@@H](NC(=O)Nc1nc2c(s1)-c1c(c(-c3ccccc3)nn1-c1ccccc1Cl)CC2)C(=O)N(C)C | < 800 |
| CN1CCC(n2nc(-c3cccnc3)c3c2-c2sc(NC(=O)NCc4cccc(C(N)=O)c4)nc2CC3)CC1 | < 800 |
| O=C(NCCc1ccc2c(c1)OCCO2)Nc1nc2c(s1)-c1c(c(-c3cncnc3)nn1-c1ccccc1Cl)CC2 | < 800 |
| O=C(Nc1nc2c(s1)-c1c(c(-c3cccnc3)nn1-c1ccccc1Cl)CC2)N1CCC2(CC1)C(=O)NCN2c1ccccc1 | < 800 |
| O=C(NCCNS(=O)(=O)c1ccccn1)Nc1nc2c(s1)-c1c(c(-c3ccccc3)nn1-c1ccccc1Cl)CC2 | < 800 |
| CCc1cccc(CNC(=O)Nc2nc3c(s2)-c2c(c(-c4cccnc4)nn2-c2ccccc2Cl)CC3)c1 | < 800 |
| CNC(=O)Nc1nc2c(s1)-c1c(c(-c3cncnc3)nn1-c1ccccc1F)CC2 | < 800 |
| CN1CCC(n2nc(-c3cccnc3)c3c2-c2sc(NC(=O)NCCC(=O)N(C)C)nc2CC3)CC1 | < 800 |
| CN1CCC(n2nc(-c3cccnc3)c3c2-c2sc(NC(=O)NCCc4nc(C5CC5)no4)nc2CC3)CC1 | < 800 |
| CS(=O)(=O)NCCNC(=O)Nc1nc2c(s1)-c1c(c(-c3ccccc3)nn1-c1ccccc1Cl)CC2 | < 800 |
| CN1CCN(CCNC(=O)Nc2nc3c(s2)-c2c(c(-c4cncnc4)nn2-c2ccccc2F)CC3)CC1 | < 800 |
| CC(=O)NC1CCN(C(=O)Nc2nc3c(s2)-c2c(c(-c4cccnc4)nn2-c2ccccc2Cl)CC3)C1 (stereo not given) | < 800 |
| CN(C)C(=O)CCCNC(=O)Nc1nc2c(s1)-c1c(c(-c3ccccc3)nn1-c1ccccc1Cl)CC2 | < 800 |
| O=C(NC[C@H]1CCN(C(=O)N2CCCC2)C1)Nc1nc2c(s1)-c1c(c(-c3ccccc3)nn1-c1cccc(Cl)c1)CC2 | < 800 |
| CCc1nnc(CCNC(=O)Nc2nc3c(s2)-c2c(c(-c4cccnc4)nn2-c2ccccc2Cl)CC3)o1 | < 800 |
| CN1CCC(n2nc(-c3cccnc3)c3c2-c2sc(NC(=O)NCc4cccc(N5CCNC5=O)c4)nc2CC3)CC1 | < 800 |
| CCc1csc(CCNC(=O)Nc2nc3c(s2)-c2c(c(-c4cccnc4)nn2C2CCN(C4CCCC4)CC2)CC3)n1 | < 800 |
| CN1CCN(Cc2cccc(NC(=O)Nc3nc4c(s3)-c3c(c(-c5cncnc5)nn3-c3ccccc3F)CC4)c2)CC1 | < 800 |
| O=C(NCCc1cccc(N2CCNC2=O)c1)Nc1nc2c(s1)-c1c(c(-c3cncnc3)nn1-c1ccccc1Cl)CC2 | < 800 |
| O=C(NCCN1CCNC1=O)Nc1nc2c(s1)-c1c(c(-c3cccnc3)nn1-c1ccccc1Cl)CC2 | < 800 |
| CC(C)(C)OC(=O)N1CCCCC1CNC(=O)Nc1nc2c(s1)-c1c(c(-c3cccnc3)nn1-c1ccccc1Cl)CC2 (stereo not given) | < 800 |
| Cn1cc(CCNC(=O)Nc2nc3c(s2)-c2c(c(-c4cccnc4)nn2-c2ccccc2Cl)CC3)cn1 | < 800 |
| CCc1cnc(CCNC(=O)Nc2nc3c(s2)-c2c(c(C4CC4)nn2-c2ccccc2Cl)CC3)o1 | < 800 |
| CNC(=O)[C@@H](C)NC(=O)Nc1nc2c(s1)-c1c(c(-c3ccccc3)nn1-c1ccccc1Cl)CC2 | < 800 |
| CC(C)(C)OC(=O)NCc1cccc(CNC(=O)Nc2nc3c(s2)-c2c(c(-c4cccnc4)nn2-c2ccccc2Cl)CC3)c1 | < 800 |
